In patent US8282910B2, “Composition for skin or hair” (Shiseido Company Ltd., priority 2007, dated 2012):

Experiments:
[1] = background statement; cited from earlier work
[2] = Solubility of poorly-soluble UV absorbers in oils: triazine derivative (Test Example 3); assay type: physicochemical; conditions: 2,4-bis{[4-(2-ethylhexyloxy)-2-hydroxy]phenyl}-6-(4-methoxyphenyl) 1,3,5-triazine dissolved in the oil; supernatant after crystal nuclei, 0° C
Procedure: (§1) Each of triazine derivative and dibenzoylmethane derivative was warmed and dissolved into each oil shown in Table 2, and then each mixture was cooled to room temperature. After adding crystal nuclei, they were cooled at 0° C. A saturation solubility of each supernatant fluid was measured.
2,4-bis{[4-(2-ethylhexyloxy)-2-hydroxy]phenyl}-6-(4-methoxyphenyl) 1,3,5-triazine was used as triazine derivative.

[3] = Solubility of poorly-soluble UV absorbers in oils: dibenzoylmethane derivative (Test Example 3); assay type: physicochemical; conditions: 4-tert-butyl-4′-methoxydibenzoylmethane dissolved in the oil; supernatant after crystal nuclei, 0° C
Procedure: as §1
4-tert-butyl-4′-methoxydibenzoylmethane was used as a dibenzoylmethane derivative (i.e. component (a)).

| Saturation solubility of triazine derivative [2] | Saturation solubility of dibenzoylmethane derivative [3] | SMILES | absorption maximum [1] |
| --- | --- | --- | --- |
|  |  | COc1ccc(C(=O)CC(=O)c2ccc(C(C)(C)C)cc2)cc1 [4-tert-butyl-4′-methoxydibenzoylmethane] | around 360 nm |
| 4% | 6% | CCCCCCCC(=O)OCC(COC(=O)CCCCCCC)(COC(=O)CCCCCCC)COC(=O)CCCCCCC [Pentaerithrityl tetraoctanoate] |  |
